Test results published in PubChem BioAssay (NCI).
Where “and” joins values, the source holds several entries; their conditions need not be identical. Identical values can stand only once.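 Results reflect a 48-hour exposure of cells in 96-well plates to compound at five concentrations. GI50 marks 50% less growth. The concentration for full growth arrest is given as TGI.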

What was measured:
Experiment in all cases: growth of human tumour cells (NCI), 48 h
[1] = tested on: COLO 205 colon
[2] = tested on: HL-60(TB) leukemia
[3] = tested on: HOP-92 NSCLC
[4] = tested on: RXF 393 renal
[5] = tested on: SF-539 CNS
[6] = tested on: SK-MEL-28 melanoma
[7] = tested on: BT-549 breast

COC1CC2CCC(C)[C@](O)(O2)C(=O)C(=O)N2CCCCC2C(=O)OC(C(C)CC2CCC(O)C(OC)C2)CC(=O)C(C)C=C(C)C(OC(=O)CN(C)C)C(OC)C(=O)C(C)CC(C)/C=C/C=C/C=C\1C (some centres undefined)
TGI [1]: 25.2 µM | TGI [2]: 6.38 µM | TGI [3]: 21.6 µM | TGI [4]: 15.5 µM | TGI [5]: 12.7 µM | TGI [6]: 20.7 µM

O=C1/C(=C/c2ccc(Cl)cc2)CN(C(=O)C(Cl)Cl)C/C1=C\c1ccc(Cl)cc1
GI50 [7]: 0.259 µM | TGI [7]: 0.765 µM | GI50 [1]: 0.233 µM | TGI [1]: 0.756 µM | GI50 [2]: 0.291 µM | GI50 [3]: 0.249 µM | TGI [3]: 1.01 µM | GI50 [4]: 0.18 µM | TGI [4]: 0.378 µM | GI50 [5]: 0.194 µM | TGI [5]: 0.467 µM | GI50 [6]: 0.227 µM | TGI [6]: 0.517 µM

COC(=O)[C@@H](C)C[C@H](Cc1ccccc1)NC(=O)c1csc([C@@H](C[C@H](C(C)C)N(C)C(=O)[C@@H](NC(=O)[C@H]2CCCCN2C)C(C)C)OC(C)=O)n1
GI50 [7]: 0.000284 µM and < 0.0025 µM | TGI [7]: 0.0183 µM and < 0.0025 µM | GI50 [1]: < 0.0025 µM | TGI [1]: < 0.0025 µM | GI50 [2]: 0.000187 µM and < 0.0025 µM | TGI [2]: 0.000627 µM and < 0.0025 µM | GI50 [3]: 0.000692 µM and < 0.0025 µM | GI50 [4]: 0.0025 µM | TGI [4]: > 25 µM | GI50 [5]: 0.000294 µM and < 0.0025 µM | TGI [5]: 0.00209 µM and < 0.0025 µM | GI50 [6]: 0.0025 µM | TGI [6]: > 25 µM

Cc1ccc(NC(=O)c2ccnc(N3CCCC3)c2)cc1-c1ccc(C(=O)NCC2CC2)cc1
GI50 [7]: > 25 µM | TGI [7]: > 25 µM | GI50 [1]: > 25 µM | TGI [1]: > 25 µM | GI50 [2]: > 25 µM | TGI [2]: > 25 µM | GI50 [3]: 8.2 µM | TGI [3]: > 25 µM | TGI [4]: > 25 µM | GI50 [5]: > 25 µM | TGI [5]: > 25 µM | GI50 [6]: > 25 µM | TGI [6]: > 25 µM

ON(CCc1ccccn1)Cc1ccccc1
TGI [7]: > 100 µM | TGI [1]: > 100 µM | TGI [3]: > 100 µM | TGI [4]: > 100 µM | TGI [5]: > 100 µM | TGI [6]: > 100 µM

C[C@]12CCC(=O)C=C1CC[C@@H]1[C@@H]2CC[C@]2(C)C(=O)/C(=C/c3cccc(OCCN4CCOCC4)c3)C[C@@H]12
GI50 [1]: 5.21 µM | TGI [1]: 25.5 µM | GI50 [2]: 2.13 µM | TGI [2]: 5.82 µM | GI50 [3]: 10.2 µM | TGI [3]: 31.7 µM | GI50 [4]: 5.62 µM | TGI [4]: 20.9 µM | GI50 [5]: 10.5 µM | TGI [5]: 23.7 µM | GI50 [6]: 11.9 µM | TGI [6]: 29.8 µM

COc1ccc(-c2nc(-c3nc4cc(C)c(C)cc4[nH]3)cc3c2[nH]c2ccccc23)cc1
GI50 [7]: 2.96 µM | TGI [7]: 8.21 µM | GI50 [1]: 1.79 µM | TGI [1]: 3.8 µM | GI50 [2]: 2.59 µM | TGI [2]: 5.96 µM | GI50 [4]: 1.72 µM | TGI [4]: 3.66 µM | GI50 [5]: 1.72 µM | TGI [5]: 4.24 µM | GI50 [6]: 2.89 µM | TGI [6]: 10.5 µM

CC(C)=CCC/C(C)=C/CC/C(=C/COP(=O)(OCc1ccc([N+](=O)[O-])o1)N(C)CCCCCl)C(C)(C)C (centres undefined)
GI50 [1]: 15.9 µM | TGI [1]: 53.1 µM | GI50 [2]: 4.18 µM | TGI [2]: > 100 µM | GI50 [3]: 12.8 µM | TGI [3]: 25.4 µM | GI50 [4]: 7.84 µM | TGI [4]: 26.5 µM | GI50 [5]: 4.25 µM | TGI [5]: 10.6 µM | GI50 [6]: 17.1 µM | TGI [6]: 37.5 µM

CCOC(=O)c1c(Cl)c2c(n1Cc1cc(OC)cc(OC)c1)-c1oncc1CCC2
GI50 [7]: 19.6 µM | TGI [7]: > 100 µM | GI50 [1]: 0.301 µM | TGI [1]: 1.49 µM | GI50 [2]: 0.293 µM | TGI [2]: 1.03 µM | GI50 [3]: 0.335 µM | TGI [3]: 28.6 µM | GI50 [4]: 0.201 µM | TGI [4]: 6.03 µM | GI50 [6]: 0.554 µM | TGI [6]: > 100 µM

CCN(CC)CCOc1cc2c(C(=O)OC)c(C)oc2cc1C(C)=O
GI50 [7]: 7.84 µM | TGI [7]: 22.8 µM | GI50 [1]: 8.27 µM | TGI [1]: 26.6 µM | GI50 [4]: 17.9 µM | TGI [4]: 41 µM

COc1cnc2c(c1)C(=O)c1c-2n(CCCN2CCN(C)CC2)c(=O)c2cc(Cl)ccc12
GI50 [1]: 1.3 µM | TGI [1]: > 100 µM | GI50 [2]: 18 µM | TGI [2]: 42.4 µM | GI50 [3]: 4.68 µM | TGI [3]: 29.8 µM | GI50 [4]: 1.9 µM | TGI [4]: 13.3 µM | GI50 [5]: 2.15 µM | TGI [5]: 5.31 µM | GI50 [6]: 2.3 µM | TGI [6]: 5.04 µM

O=C(Cn1ccnc1[N+](=O)[O-])NCC(F)(F)C(F)(F)F
GI50 [7]: > 100 µM | TGI [7]: > 100 µM | GI50 [1]: > 100 µM | TGI [1]: > 100 µM | GI50 [3]: > 100 µM | TGI [3]: > 100 µM | GI50 [4]: > 100 µM | TGI [4]: > 100 µM | GI50 [5]: > 100 µM | TGI [5]: > 100 µM | GI50 [6]: > 100 µM | TGI [6]: > 100 µM

CCOC(=O)c1cc2ncccc2c2ccccc12
TGI [7]: > 100 µM | TGI [1]: > 100 µM | TGI [2]: > 100 µM | TGI [3]: > 100 µM | TGI [4]: > 100 µM | TGI [6]: > 100 µM

Cc1cc(C)nc(SC2=C(Nc3cccc(Cl)c3)C(=O)N(Cc3ccccc3)C2=O)n1
GI50 [7]: > 170 µM | TGI [7]: > 170 µM | GI50 [1]: > 170 µM | TGI [1]: > 170 µM | GI50 [2]: > 170 µM | TGI [2]: > 170 µM | GI50 [3]: > 170 µM | TGI [3]: > 170 µM | GI50 [5]: > 170 µM | TGI [5]: > 170 µM | GI50 [6]: > 170 µM | TGI [6]: > 170 µM

O=C(/C=C\Sc1nccc(C(F)(F)F)n1)c1ccc(Br)cc1
GI50 [7]: 44.6 µM | TGI [7]: > 100 µM | GI50 [1]: 18.6 µM | TGI [1]: 36.5 µM | GI50 [2]: 0.84 µM | TGI [2]: 20.8 µM | GI50 [4]: 18.5 µM | TGI [4]: 40.9 µM | GI50 [5]: 23.3 µM | TGI [5]: 69.4 µM | GI50 [6]: 16 µM | TGI [6]: 32.1 µM
